# From ChEMBL document CHEMBL5303304, “EUbOPEN Chemogenomics Library - IncuCyte” (2023)
# Columns and labels:
# Format in all cases: toxicity, cell-based
# [1] = test system: U2OS; test: Incucyte cell viability with U2OS; settings: human, 10 µM, compound concentration 10 uM
# [2] = test system: Fibroblast; test: Incucyte cell viability with human fibroblast; settings: 10 µM, compound concentration 10 uM
# [3] = test system: HEK-293T; test: Incucyte cell viability with HEK293T; settings: human, 10 µM, compound concentration 10 uM
# Also: unitless GR value; below 1 slowed growth and below 0 cell loss.
Structure (SMILES),"Growth Rate ([1]; 0 h, replicate number 1)","Growth Rate ([1]; 6 h, replicate number 1)","Growth Rate ([1]; 12 h, replicate number 1)","Growth Rate ([1]; 18 h, replicate number 1)","Growth Rate ([1]; 24 h, replicate number 1)","Growth Rate ([2]; 12 h, replicate number 2)","Growth Rate ([2]; 18 h, replicate number 2)","Growth Rate ([3]; 0 h, replicate number 1)","Growth Rate ([3]; 12 h, replicate number 2)","Growth Rate ([3]; 18 h, replicate number 2)","Growth Rate ([3]; 24 h, replicate number 2)","Growth Rate ([1]; 24 h, replicate number 2)","Growth Rate ([2]; 0 h, replicate number 2)","Growth Rate ([2]; 18 h, replicate number 1)","Growth Rate ([2]; 24 h, replicate number 2)","Growth Rate ([3]; 6 h, replicate number 1)","Growth Rate ([3]; 6 h, replicate number 2)","Growth Rate ([3]; 12 h, replicate number 1)","Growth Rate ([1]; 18 h, replicate number 2)","Growth Rate ([1]; 12 h, replicate number 2)",other results
CN1C(=O)c2c(nn(Cc3ccc(-c4cccc(F)n4)cc3)c2Nc2ccccc2)N2C1=N[C@@H]1CCC[C@@H]12.O=P(O)(O)O [LENRISPODUN PHOSPHATE],0.51,0.84,0.5,0.67,0.68,0.65,0.94,0.85,0.71,0.79,0.83,–,–,–,–,–,–,–,–,–,"Growth Rate ([2]; 0 h, replicate number 1): -1; Growth Rate ([3]; 0 h, replicate number 2): 0.18"
C[C@@H]1C[C@H](N)C[C@H](c2ccncc2NC(=O)c2ccc(F)c(-c3c(F)cccc3F)n2)C1 [LGH-447],–,-0.22,0.59,0.82,0.98,0.9,0.58,–,0.54,0.54,0.57,0.96,0.09,0.87,0.44,-0.02,0.11,0.2,–,–,"Growth Rate ([2]; 6 h, replicate number 2): 0.93; Growth Rate ([2]; 12 h, replicate number 1): 0.96; Growth Rate ([2]; 24 h, replicate number 1): 0.67; Growth Rate ([3]; 18 h, replicate number 1): 0.27; Growth Rate ([3]; 24 h, replicate number 1): 0.36"
C[C@H](CCC(=O)O)[C@H]1CC[C@H]2[C@@H]3CC[C@@H]4C[C@H](O)CC[C@]4(C)[C@H]3CC[C@]12C [LITHOCHOLIC ACID],-0.56,0.93,0.68,0.74,0.83,0.76,0.87,0.14,0.67,0.77,–,–,0.27,–,0.89,–,0.73,–,–,–,–
CN1[C@@H](CC(=O)c2ccccc2)CCC[C@H]1C[C@H](O)c1ccccc1.Cl [LOBELINE HYDROCHLORIDE],0.28,0.83,0.92,–,–,0.64,–,–,–,–,–,0.87,-0.71,0.91,0.83,0.43,0.24,0.62,1,–,"Growth Rate ([1]; 0 h, replicate number 2): -0.67; Growth Rate ([2]; 6 h, replicate number 1): 0.48; Growth Rate ([2]; 6 h, replicate number 2): 0.28; Growth Rate ([2]; 24 h, replicate number 1): 0.58"
CC(C)CC(=O)Nc1cncc(-c2ccc3[nH]nc(-c4nc5c(-c6cccc(F)c6)cncc5[nH]4)c3c2)c1 [LORECIVIVINT],–,-0.98,-0.71,-0.52,-0.44,-0.68,-0.37,–,-0.78,-0.58,-0.44,-0.42,-0.25,–,-0.13,-0.99,-0.98,-0.89,-0.47,-0.62,"Growth Rate ([1]; 0 h, replicate number 2): -0.42; Growth Rate ([1]; 6 h, replicate number 2): -0.82; Growth Rate ([2]; 0 h, replicate number 1): -0.18; Growth Rate ([2]; 6 h, replicate number 1): -1; Growth Rate ([2]; 6 h, replicate number 2): -0.98; Growth Rate ([3]; 18 h, replicate number 1): -0.67; Growth Rate ([3]; 24 h, replicate number 1): -0.41"
Fc1ccc(-c2c3cccc(C(F)(F)F)c3nn2Cc2ccc(F)cc2Cl)cc1 [LXR-623],–,–,–,–,–,0.12,-0.04,0.13,0.57,0.76,0.73,0.9,–,-0.12,0.03,0.77,0.3,0.75,0.94,0.95,"Growth Rate ([1]; 0 h, replicate number 2): 0.79; Growth Rate ([1]; 6 h, replicate number 2): 0.69; Growth Rate ([2]; 6 h, replicate number 1): -0.18; Growth Rate ([2]; 6 h, replicate number 2): 0.35; Growth Rate ([2]; 12 h, replicate number 1): -0.03; Growth Rate ([2]; 24 h, replicate number 1): -0.06; Growth Rate ([3]; 0 h, replicate number 2): -0.86; Growth Rate ([3]; 18 h, replicate number 1): 0.77; Growth Rate ([3]; 24 h, replicate number 1): 0.91"
CC(C)(C)C(=O)NCc1ccc(Cl)c(C(=O)Nc2ncc[nH]2)c1 [LY-3031207],0.65,–,–,–,–,0.86,–,0.13,–,–,–,0.94,0.1,–,–,–,–,–,0.97,0.95,"Growth Rate ([2]; 6 h, replicate number 1): 0.85; Growth Rate ([2]; 6 h, replicate number 2): -0.3; Growth Rate ([2]; 24 h, replicate number 1): 0.89; Growth Rate ([3]; 0 h, replicate number 2): -0.13"
CNC1(C)C2CCC(C2)C1(C)C.Cl (stereo not given) [MECAMYLAMINE HYDROCHLORIDE],0.92,1,–,0.93,0.98,0.66,–,–,0.84,0.89,0.91,0.73,0.92,0.43,–,0.95,0.89,0.74,0.64,0.97,"Growth Rate ([1]; 0 h, replicate number 2): -0.76; Growth Rate ([1]; 6 h, replicate number 2): 0.24; Growth Rate ([2]; 0 h, replicate number 1): 0.75; Growth Rate ([2]; 6 h, replicate number 1): 0.44; Growth Rate ([2]; 12 h, replicate number 1): -1"
CCCCC(C)(O)C/C=C/[C@H]1[C@H](O)CC(=O)[C@@H]1CCCCCCC(=O)O (stereo not given in full) [MISOPROSTOL ACID],–,–,–,–,–,–,–,-0.42,–,–,–,–,-0.92,0.86,0.97,–,–,–,–,0.94,"Growth Rate ([1]; 0 h, replicate number 2): 0.49; Growth Rate ([2]; 0 h, replicate number 1): -1; Growth Rate ([2]; 12 h, replicate number 1): 0.98; Growth Rate ([3]; 0 h, replicate number 2): -0.77"
O=C(O)[C@]1(Cc2cccc(Nc3nccs3)n2)CC[C@@H](Oc2cccc(Cl)c2F)CC1 [MK-5108],–,0.98,0.56,0.21,0.37,0.85,0.26,0.43,0.16,0.35,0.61,0.47,-1,0.17,0.2,0.9,0.73,0.39,0.25,0.14,"Growth Rate ([1]; 6 h, replicate number 2): 0.59; Growth Rate ([2]; 12 h, replicate number 1): 0.18; Growth Rate ([2]; 24 h, replicate number 1): 0.32; Growth Rate ([3]; 18 h, replicate number 1): 0.47; Growth Rate ([3]; 24 h, replicate number 1): 0.63"
